Laboratory results from patent US20230131966A1, “FUNGICIDAL AMIDES” (FMC Corporation, priority 2020, published 2023).

Columns and labels:
Type in all cases: in vivo
[1] = tested on: Erysiphe graminis f. sp. tritici; test: Test G: wheat powdery mildew control on wheat seedlings; conditions: for pest or weed control at 250 ppm: Blumeria graminis, read-out: Test G disease control rating; for pest or weed control at 250 ppm / Test G disease control rating: 100 = 100% disease control, 0 = no control, 250 ppm; for Test G disease control rating (100 = 100% disease control, 0 = no disease control): rate 250 ppm, relative to the controls
Botrytis cinerea = test: Test E: tomato Botrytis control on tomato seedlings; conditions: for pest or weed control at 250 ppm: Botrytis cinerea, read-out: Test E disease control rating; for pest or weed control at 250 ppm / Test E disease control rating: 100 = 100% disease control, 0 = no control, 250 ppm; for Test E disease control rating (100 = 100% disease control, 0 = no disease control): rate 250 ppm, relative to the controls
Phytophthora infestans = test: whole plant or invertebrate; conditions: tomato seedlings; for pest or weed control at 250 ppm: Phytophthora infestans, in Solanum lycopersicum, read-out: Test F disease control rating, 250 ppm; for pest or weed control at 250 ppm / Test F disease control rating: 100 = 100% disease control, 0 = no control; for Test F disease control rating (100 = 100% disease control, 0 = no disease control): rate 250 ppm, relative to the controls; for Test F disease control rating: 250 ppm
Phakopsora pachyrhizi = test: Test A: Asian soybean rust control on soybean seedlings; conditions: for pest or weed control at 250 ppm: Phakopsora pachyrhizi, read-out: Test A disease control rating; for pest or weed control at 250 ppm / Test A disease control rating: soybean seedlings, 100 = 100% disease control, 0 = no control, 250 ppm; for Test A disease control rating (100 = 100% disease control, 0 = no disease control): rate 250 ppm, relative to the controls
Plasmopara viticola = test: Test D: grape downy mildew control on grape seedlings; conditions: for Test D disease control rating / pest or weed control at 250 ppm: 250 ppm, 100 = 100% disease control, 0 = no control; for Test D disease control rating (100 = 100% disease control, 0 = no disease control): rate 250 ppm, relative to the controls; for pest or weed control at 250 ppm: Plasmopara viticola, read-out: Test D disease control rating
Zymoseptoria tritici = test: Test C: wheat leaf blotch control on wheat seedlings; conditions: for Test C disease control rating / pest or weed control at 250 ppm: 250 ppm, wheat seedlings, 100 = 100% disease control, 0 = no control; for Test C disease control rating (100 = 100% disease control, 0 = no disease control): rate 250 ppm, relative to the controls; for pest or weed control at 250 ppm: Zymoseptoria tritici, read-out: Test C disease control rating
[2] = tested on: Puccinia recondita f. sp. tritici; test: Test B: wheat leaf rust control on wheat seedlings; conditions: for Test B disease control rating / pest or weed control at 250 ppm: 250 ppm, wheat seedlings, 100 = 100% disease control, 0 = no control; for Test B disease control rating (100 = 100% disease control, 0 = no disease control): rate 250 ppm, relative to the controls; for pest or weed control at 250 ppm: Puccinia recondita, read-out: Test B disease control rating

SMILES | Test D disease control rating (Plasmopara viticola) [%] | Test C disease control rating (Zymoseptoria tritici) [%] | Test B disease control rating [2] [%] | Test G disease control rating [1] [%] | Test E disease control rating (Botrytis cinerea) [%] | Test F disease control rating (Phytophthora infestans) [%] | Test A disease control rating (Phakopsora pachyrhizi) [%] | further results
COc1ccnc(C(=O)NC(C)C(=O)OC(C)c2cccc3ccccc23)c1O (centres unmarked) [Compound 113] | 94 | 42 | 0 |  |  |  |  | pest or weed control at 250 ppm [1]: 0%; pest or weed control at 250 ppm (Botrytis cinerea): 0%; pest or weed control at 250 ppm (Phytophthora infestans): 0%; pest or weed control at 250 ppm (Phakopsora pachyrhizi): 90%
COc1ccnc(C(=O)NC(C)C(=O)OC(C)C2Cc3ccccc3O2)c1O (mixture of isomers) [Compound 187] |  |  |  |  |  |  |  | Test G disease control rating (100 = 100% disease control, 0 = no disease control) [1]: 0%; Test E disease control rating (100 = 100% disease control, 0 = no disease control) (Botrytis cinerea): 0%; Test F disease control rating (100 = 100% disease control, 0 = no disease control) (Phytophthora infestans): 0%; Test A disease control rating (100 = 100% disease control, 0 = no disease control) (Phakopsora pachyrhizi): 97%; Test D disease control rating (100 = 100% disease control, 0 = no disease control) (Plasmopara viticola): 6%; Test C disease control rating (100 = 100% disease control, 0 = no disease control) (Zymoseptoria tritici): 96%; Test B disease control rating (100 = 100% disease control, 0 = no disease control) [2]: 100%
COc1ccnc(C(=O)NC(C)C(=O)OC(C)c2ccncc2)c1O (racemic) [Compound 14] |  |  |  |  |  |  |  | pest or weed control at 250 ppm [1]: 0%; pest or weed control at 250 ppm (Botrytis cinerea): 0%; pest or weed control at 250 ppm (Phytophthora infestans): 0%; pest or weed control at 250 ppm (Phakopsora pachyrhizi): 0%; pest or weed control at 250 ppm (Plasmopara viticola): 48%; pest or weed control at 250 ppm (Zymoseptoria tritici): 12%; pest or weed control at 250 ppm [2]: 0%
COc1ccnc(C(=O)NC(C)C(=O)OC(C)c2ccc(OC3CCCCC3)cc2)c1O (mixture of isomers) [Compound 53] | 22 | 22 | 55 | 0 | 0 | 0 | 56 | 
CCC(OC(=O)[C@H](C)NC(=O)c1nccc(OC)c1OC(C)=O)c1ccc(C2CCCCC2)cc1 (mixture of isomers) [Compound 100, N-[[3-(acetyloxy)-4-methoxy-2-pyridinyl]carbonyl]-L-alanine 1-(4-cyclohexylphenyl)propyl ester] |  |  |  |  |  |  |  | pest or weed control at 250 ppm [1]: 0%; pest or weed control at 250 ppm (Botrytis cinerea): 0%; pest or weed control at 250 ppm (Phytophthora infestans): 0%; pest or weed control at 250 ppm (Phakopsora pachyrhizi): 100%; pest or weed control at 250 ppm (Plasmopara viticola): 32%; pest or weed control at 250 ppm (Zymoseptoria tritici): 88%; pest or weed control at 250 ppm [2]: 99%
COc1ccnc(C(=O)NC(C)C(=O)OC(C)c2ccc(F)cc2Cc2ccccc2)c1O (mixture of isomers) [Compound 12] | 83 | 0 | 97 | 0 | 0 | 0 | 99 | 
CCCCCCc1ccc(C(C)OC(=O)C(C)NC(=O)c2nccc(OC)c2O)cc1 (mixture of isomers) [Compound 68] | 46 | 97 | 95 | 0 | 0 | 40 | 100 | 
COc1ccnc(C(=O)NC(C)C(=O)OC(C)C2CCC(C(C)(C)C)CC2)c1OC(C)=O (mixture of isomers) [Compound 181] | 80 | 100 | 100 | 0 | 0 | 26 | 100 | 
CC(NC(=O)c1cccc(NC=O)c1O)C(=O)OC(C)c1ccc(C2CCCCC2)cc1 (mixture of isomers) [Compound 97] | 100 | 99 | 92 | 0 | 0 | 99 | 98 | 
COc1ccnc(C(=O)N[C@@H](C)C(=O)OC(C)c2cccc(-c3ccccc3)c2)c1O (single isomer, unassigned) [Compound 3] | 32 | 83 | 99 | 0 | 16 | 0 | 100 | 
COc1ccnc2c(=O)n([C@@H](C)C(=O)OC(C)c3ccc(C4CCCCC4)cc3)c(=O)oc12 (single isomer, unassigned) [Compound 194] |  |  |  |  |  |  |  | Test G disease control rating (100 = 100% disease control, 0 = no disease control) [1]: 0%; Test E disease control rating (100 = 100% disease control, 0 = no disease control) (Botrytis cinerea): 0%; Test F disease control rating (100 = 100% disease control, 0 = no disease control) (Phytophthora infestans): 0%; Test A disease control rating (100 = 100% disease control, 0 = no disease control) (Phakopsora pachyrhizi): 87%; Test D disease control rating (100 = 100% disease control, 0 = no disease control) (Plasmopara viticola): 18%; Test C disease control rating (100 = 100% disease control, 0 = no disease control) (Zymoseptoria tritici): 37%; Test B disease control rating (100 = 100% disease control, 0 = no disease control) [2]: 68%
COc1ccnc(C(=O)NC(C)C(=O)OC(C)C2CCC(C(F)(F)F)CC2)c1OC(C)=O (mixture of isomers) [Compound 180] | 51 | 95 | 99 | 0 | 0 | 26 | 100 | 
COc1cccc(C(=O)NC(C)C(=O)OC(C)c2ccccc2Cc2ccccc2)c1O (centres unmarked) [Compound 5] | 73 | 0 | 0 | 0 | 0 | 39 | 0 | 
CCC(OC(=O)[C@H](C)NC(=O)c1nccc(OC)c1OCOC(C)=O)C1CCCCC1 (single isomer, unassigned) [Compound 190] |  |  |  |  |  |  |  | Test G disease control rating (100 = 100% disease control, 0 = no disease control) [1]: 0%; Test E disease control rating (100 = 100% disease control, 0 = no disease control) (Botrytis cinerea): 0%; Test F disease control rating (100 = 100% disease control, 0 = no disease control) (Phytophthora infestans): 0%; Test A disease control rating (100 = 100% disease control, 0 = no disease control) (Phakopsora pachyrhizi): 100%; Test D disease control rating (100 = 100% disease control, 0 = no disease control) (Plasmopara viticola): 43%; Test C disease control rating (100 = 100% disease control, 0 = no disease control) (Zymoseptoria tritici): 46%; Test B disease control rating (100 = 100% disease control, 0 = no disease control) [2]: 74%
COc1ccnc(C(=O)NC(C)C(=O)OC(C)c2ccc3ccccc3c2)c1OC(C)=O (mixture of isomers) [Compound 75] | 61 | 100 | 100 | 0 | 0 | 0 | 100 | 
COc1ccnc(C(=O)NC(C)C(=O)OC(C)C2CC(C)(C)CC(C)(C)C2)c1OC(C)=O (mixture of isomers) [Compound 171] | 49 | 80 | 100 | 0 | 0 | 53 | 100 | 
CCOC(=O)c1cnn(-c2ccc(C(C)OC(=O)C(C)NC(=O)c3nccc(OC)c3OC(C)=O)cc2)c1 (mixture of isomers) [Compound 47] | 20 | 51 | 68 | 0 | 0 | 0 | 99 | 
